Where two headings read alike, the source gives them in different places. Square brackets hold non-standard residues; d marks the D form. Peptide text beside a SMILES is read from it. * marks the point of attachment. X1 = CN1/C(=C/C=C/C=C/C2=[N+](CCCCCC(=O)*)c3ccc(S(=O)(=O)[O-])cc3C2(C)C)C(C)(C)c2cc(S(=O)(=O)O)ccc21; 1Nal = N[C@@H](Cc1cccc2ccccc12)C(=O)O; X2 = O=C(c1ccc2cc(F)ccc2c1)*; Octanoyl = CCCCCCCC(=O)*; Dap = NC[C@H](N)C(=O)O; Inp = O=C(O)C1CCNCC1
Key:
hGOAT = molecular target: T1, hGOAT (Homo sapiens, UniProt Q96T53); experiment: hGOAT inhibition assay (octanoylation of GSSFLCAcDan by Sf9 membrane fraction expressing hGOAT, HPLC fluorescence); format: biochemical; details: read-out: IC50 against hGOAT
T1 construct: 3xHA (C); FLAG (C); His6 (C); made in house; host or cells: Sf9 insect cells (baculovirus), crude membrane fraction
T1 sequence (Q96T53 1-435): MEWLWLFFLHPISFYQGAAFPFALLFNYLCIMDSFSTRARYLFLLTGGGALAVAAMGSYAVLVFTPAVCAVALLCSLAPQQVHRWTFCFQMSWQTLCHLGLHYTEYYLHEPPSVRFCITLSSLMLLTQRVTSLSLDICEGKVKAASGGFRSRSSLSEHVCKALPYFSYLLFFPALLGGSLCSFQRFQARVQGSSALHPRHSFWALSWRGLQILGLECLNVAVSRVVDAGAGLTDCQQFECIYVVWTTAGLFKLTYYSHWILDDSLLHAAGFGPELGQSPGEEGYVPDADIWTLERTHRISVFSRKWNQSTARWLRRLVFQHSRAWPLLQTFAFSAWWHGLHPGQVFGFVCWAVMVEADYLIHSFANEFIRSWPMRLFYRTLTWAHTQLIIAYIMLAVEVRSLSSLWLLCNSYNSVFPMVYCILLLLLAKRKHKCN
Description: Assays were performed using previously reported protocols,[57],[58] as described in the Supporting Information. […]
hGOAT inhibition assays. Assays were performed using previously reported protocols.2-3 For each assay, membrane fraction from Sf9 cells expressing hGOAT was thawed on ice and homogenized by passage through an 18-gauge needle 10 times. Assays were performed with 50 µg of membrane protein, as determined by Bradford assay. Membrane fraction was pre-incubated with 1 µM methyl […]
arachidonyl fluorophosphonate (MAFP) and unlabeled peptide inhibitor or vehicle as indicated in 50 mM HEPES pH 7.0 for 30 minutes at room temperature prior to reaction initiation.4 All reactions were initiated by the addition of 1.5 µM GSSFLCAcDan and 300 µM octanoyl CoA.
Reactions were incubated for 30 minutes at room temperature under foil. All assays were stopped with the addition of 50 µL of 20% acetic acid in isopropanol, and solutions were clarified by protein precipitation with 16.7 µL of 20% trichloroacetic acid, followed by centrifugation (1,000 x g, 2 minutes). The supernatant was then analyzed using reverse-phase HPLC with fluorescence detection as previously described.2-3 Peak integrations for both substrate and product peaks were calculated using Chemstation for LC (Agilent Technologies). Data reported are the average of three independent determinations, with error reported as standard deviation.
For determination of IC50 values, the percent activity at each inhibitor concentration was calculated from HPLC integration data using equations 1 and 2: To determine an IC50 value for a given inhibitor, the plot of % activity versus [inhibitor] was fit to equation 3, with % activity0 denoting hGOAT activity in the presence of the vehicle alone. All reported IC50 values represent the average of a minimum of three independent trials.
(1) % activity = % peptide acylation in presence of inhibitor
% peptide acylation in absence of inhibitor
(2) % peptide octanoylation = Fluorescence of acylated peptide
Total peptide fluorescence (acylated and non-acylated)
(3) % activity = % activity * (1- [inhibitor] )

GHSR (GHS-R1a) [1] = molecular target: T2, GHSR (GHS-R1a) (Homo sapiens, UniProt Q92847); set-up: method as in Charron et al.[22]; details: ref Charron et al.[22]; read-out: IC50 against GHSR; cited from earlier work
T2 construct: expressed in transfected cells; host or cells: HEK 293 cells transfected with GHS-R1a (membrane suspension)
Target sequence in this assay (Q92847 whole entry, species assumed): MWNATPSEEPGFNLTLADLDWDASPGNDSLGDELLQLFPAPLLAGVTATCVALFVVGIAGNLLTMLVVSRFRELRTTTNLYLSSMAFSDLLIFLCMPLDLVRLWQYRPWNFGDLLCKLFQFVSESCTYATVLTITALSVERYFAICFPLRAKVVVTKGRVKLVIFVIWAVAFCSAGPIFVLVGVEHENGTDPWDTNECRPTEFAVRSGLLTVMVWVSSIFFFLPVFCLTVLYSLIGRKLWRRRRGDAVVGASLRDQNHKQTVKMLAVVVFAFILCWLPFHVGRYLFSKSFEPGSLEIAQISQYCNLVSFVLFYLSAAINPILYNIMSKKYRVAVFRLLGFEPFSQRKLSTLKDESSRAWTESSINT

GHSR (GHS-R1a) [2] = molecular target: T2, GHSR (GHS-R1a); experiment: biochemical; format: binding
Description: Peptide binding affinity for the ghrelin receptor was determined using a competitive radioligand-displacement binding assay,[22] with details provided in the Supporting Information. […]
GHSR receptor binding assays. Peptide binding affinity for the ghrelin receptor was determined using a competitive radioligand-displacement binding assay.1 Assays were performed using GHS-R1a transfected HEK 293 cells as the receptor source and human His[125I]-ghrelin(1−28) (PerkinElmer Inc. NEX388010UC ) as the radioligand. Human ghrelin(1−28) was used as a reference to ensure the validity of the results. A suspension of membrane from HEK 293/GHS-R1a cells (100,000 cells per assay tube) were incubated with ghrelin(1−8) peptide analogues (at […]
ghrelin (15 pM per assay tube) in binding buffer (25 mM HEPES, 5 mM magnesium chloride, 1 mM calcium chloride, 2.5 mM EDTA, and 0.4% BSA, pH 7.4). The resulting suspension was incubated for 20 min under shaking (550 rpm) at 37 °C. Unbound [ 125I]-ghrelin was removed and the amount of [ 125I]-ghrelin bound to the membranes was measured by γ counter. IC 50 values were determined by nonlinear regression analysis to fit a four-parameter dose−response curve using Prism 6 (version 6.0c). All binding assays were performed in triplicate. […]

[3] = molecular target: human ghrelin O-acyltransferase (hGOAT) of the hGOAT inhibition assays (human) (UniProt Q96T53)
[4] = molecular target: T3, human ghrelin O-acyltransferase (hGOAT) of the hGOAT inhibition assays (human, UniProt Q96T53 1-435); experiment: cell-based or functional assay
T3 sequence (looked up): T1 sequence (Q96T53 1-435)

[5] = average of three independent trials ± one standard deviation

CC(C)C[C@H](NC(=O)[C@H](Cc1ccccc1)NC(=O)[C@H](CNC(=O)c1ccc2cc(F)ccc2c1)NC(=O)[C@H](CO)NC(=O)CN)C(=O)N[C@@H](CO)C(=O)N1CCC[C@H]1C(=O)N[C@@H](Cc1ccc(O)cc1)C(N)=O [ligand 3, H-GS-(6FN-Dap)-FLSPY-NH2] (H-GS[Dap](X2)FLSPY-NH2)
IC50 (hGOAT): > 100000 nM
IC50 (GHSR (GHS-R1a) [1]): 9.9 nM
selectivity for GHSR binding over GOAT (GHSR (GHS-R1a) [2]; from IC50 values of Table 1): > 100 fold

ligand 2, H-GS-(C8-Dap)-FLSPY-NH2 (peptide)
inhibition of hGOAT activity (IC50 against hGOAT) [3]: 64 nM

CCCCCCCC(=O)NC[C@H](NC(=O)[C@H](CO)NC(=O)CN)C(=O)N[C@@H](Cc1ccccc1)C(=O)N[C@@H](CC(C)C)C(=O)N[C@@H](CO)C(=O)N1CCC[C@H]1C(=O)N[C@@H](CC(N)=O)C(N)=O [ligand 10, H-GS-(C8-Dap)-FLSPN-NH2] (H-GS[Dap](Octanoyl)FLSPN-NH2)
IC50 (hGOAT; [5]): 59 ± 7 nM
IC50 (GHSR (GHS-R1a) [1]): 31.9 nM

CC(C)C[C@H](NC(=O)[C@H](Cc1ccccc1)NC(=O)[C@H](CN)NC(=O)[C@H](CO)NC(=O)CN)C(=O)N[C@@H](CO)C(=O)N1CCC[C@H]1C(=O)N[C@@H](Cc1ccc(O)cc1)C(N)=O [ligand 1, H-GS-Dap-FLSPY-NH2] (HELM PEPTIDE1{G.S.[NC[C@H](N[*:1])C(=O)[*:2]].F.L.S.P.Y.[am]}$$$$V2.0)
IC50 (GHSR (GHS-R1a) [2]; lower limit from test at 100 µM, read-out: IC50 against GHSR): ≥ 100 µM

CC(C)C[C@H](NC(=O)[C@H](Cc1cccc2ccccc12)NC(=O)[C@H](CNC(=O)c1ccc2cc(F)ccc2c1)NC(=O)[C@H](CO)NC(=O)C1CCNCC1)C(=O)N[C@@H](CO)C(=O)N1CCC[C@H]1C(=O)N[C@H](C(N)=O)[C@@H](C)O [ligand 14] (H-[Inp]S[Dap](X2)[1Nal]LSPT-NH2)
IC50 (hGOAT): > 100000 nM

CC(C)C[C@H](NC(=O)[C@H](Cc1cccc2ccccc12)NC(=O)[C@H](CN)NC(=O)[C@H](CO)NC(=O)CN)C(=O)N[C@@H](CO)C(=O)N1CCC[C@H]1C(=O)N[C@H](C(=O)N[C@@H](CCCCNC(=O)CCCCC[N+]1=C(/C=C/C=C/C=C2/N(C)c3ccc(S(=O)(=O)O)cc3C2(C)C)C(C)(C)c2cc(S(=O)(=O)[O-])ccc21)C(N)=O)[C@@H](C)O [ligand 15, H-GS-Dap-Nal-1-LSPTK(SulfoCy5)-NH2] (H-GS[Dap][1Nal]LSPTK(X1)-NH2)
IC50 (hGOAT; [5]): 17 ± 2 nM

H-Inp-S-(6FN-Dap)-FLSPY-NH2 [ligand 7]
IC50 (GHSR (GHS-R1a) [1]): 9.6 nM

CCCCCCCC(=O)NC[C@H](NC(=O)[C@H](CO)NC(=O)CN)C(=O)N[C@@H](Cc1ccccc1)C(=O)N[C@@H](CC(C)C)C(=O)N[C@@H](CO)C(=O)N1CCC[C@H]1C(=O)N[C@@H](CCC(=O)O)C(N)=O [ligand 9, H-GS-(C8-Dap)-FLSPE-NH2]
IC50 (hGOAT; [5]): 580 ± 60 nM
IC50 (GHSR (GHS-R1a) [1]): 200 nM

B1: ligand 4, H-Aib-S-Dap-FLSPY-NH2 (peptide)
chain: XSXFLSPY
HELM: PEPTIDE1{[Aib].S.[NC[C@H](N[*:1])C(=O)[*:2]].F.L.S.P.Y.[am]}$$$$V2.0
SMILES: CC(C)C[C@H](NC(=O)[C@H](Cc1ccccc1)NC(=O)[C@H](CN)NC(=O)[C@H](CO)NC(=O)C(C)(C)N)C(=O)N[C@@H](CO)C(=O)N1CCC[C@H]1C(=O)N[C@@H](Cc1ccc(O)cc1)C(N)=O
inhibition of hGOAT activity (IC50 against hGOAT) [4]: > 100000 nM

B2: ligand 13, H-GS-Dap-Nal-2-LSPT-NH2 (peptide)
chain: GSXXLSPT
HELM: PEPTIDE1{G.S.[NC[C@H](N[*:1])C(=O)[*:2]].[O=C([C@H](Cc1ccc2ccccc2c1)N[*:1])[*:2]].L.S.P.T.[am]}$$$$V2.0
SMILES: CC(C)C[C@H](NC(=O)[C@H](Cc1ccc2ccccc2c1)NC(=O)[C@H](CN)NC(=O)[C@H](CO)NC(=O)CN)C(=O)N[C@@H](CO)C(=O)N1CCC[C@H]1C(=O)N[C@H](C(N)=O)[C@@H](C)O
inhibition of hGOAT activity (IC50 against hGOAT) [4]: 16 nM

B3: ligand 1, H-GS-Dap-FLSPY-NH2 (peptide)
chain: GSXFLSPY
HELM: PEPTIDE1{G.S.[NC[C@H](N[*:1])C(=O)[*:2]].F.L.S.P.Y.[am]}$$$$V2.0
SMILES: CC(C)C[C@H](NC(=O)[C@H](Cc1ccccc1)NC(=O)[C@H](CN)NC(=O)[C@H](CO)NC(=O)CN)C(=O)N[C@@H](CO)C(=O)N1CCC[C@H]1C(=O)N[C@@H](Cc1ccc(O)cc1)C(N)=O
inhibition of hGOAT activity (IC50 against hGOAT) [4]: 104 nM

From paper PMC10442857, “Cellular Uptake of a Fluorescent Ligand Reveals Ghrelin O-Acyltransferase Interacts with Extracellular Peptides and Exhibits Unexpected Localization for a Secretory Pathway Enzyme” (ACS Chemical Biology, 2023)
